The results in this text go back to US9670242B2, “Tetracyclic anthraquinone derivatives” (Tianjin Hemay Bio-Tech Co., Ltd, priority 2012, dated 2017).

The test system of this series is mice of ICR strain. In words: Assay on MTD (maximum tolerated dose) in vivo of mice. The settings on record: for MTD: caudal vein injection, q4d×5 administration regimen; for Mortality Rate (%) / Number of Dead Animals ♂/♀: i.v., 5♂/5♀ per group; for Number of Dead Animals ♂/♀: 5 administrations. As for the experimental part:
Assay on MTD (Maxium Tolerated Dose) In Vivo of Mice
Assay on Maxium Tolerated Dose of Compound
Assay animals: mice of ICR strain with a weight of 18-22 g, purchased from Beijing Vital River Laboratories Limited, License SCXK (jing) 2007-0001.
Administration Regimen: each experimental animal was administered with corresponding dosage of tested substance once by injection of caudal vain every three days. Each dosage was initially designed as 5 times of administration. The specific time of administration depended on the conditions of the animals. It should be carefully observed the behavior conditions of the animals within 2 hours after administration. The animal's behavior was observed every 4 hours in the day of administration. The survival conditions and weight of animals were recorded every day and observed for whether abnormality occurred on the body surface thereof. The experimental animals were sacrificed on 14 day after administration and dissected for observation.
I group: (20 mg/kg) group;
II group: (25 mg/kg) group;
III group: (30 mg/kg) group;
IV group: solvent control group;
There were four groups in total. Each group consisted of five male mice and five female mice.
I group: (40 mg/kg) group;
II group: (45 mg/kg) group;
III group: (50 mg/kg) group;
IV group: (55 mg/kg) group;
V group: (60 mg/kg) group;
There were five groups in total. Each group consisted of six male mice and six female mice.
a represents that the experimental animal died immediately after the injection of drug rather than death caused by cytotoxicity.
I group: (30 mg/kg) group;
II group: (40 mg/kg) group;
IV group: (60 mg/kg) group;

Regarding `COc1cccc2c1C(=O)c1c(O)c3c(c(O)c1C2=O)CC(O)(C(=O)COC(=O)CCC(=O)O)CC3OC1CC(n2cccc2)C(O)C(C)O1` (stereo not shown) [Compound A, 3′-pyrrolyldoxorubicin-14-oxo-succinic acid monoester, reference compound], the MTD entry is “approximately 30 mg/kg”. Further, the MTD (molar equivalent) was ~0.0433 mmol/kg. Also, where the note is “30 mg/kg, 5 administrations (total 150 mg/kg)”, the “Mortality Rate (%)” value amounted to 10%. The “Number of Dead Animals ♂/♀” value (30 mg/kg) is given as 0/1. Also, the “Mortality Rate (%)” value (40 mg/kg, 5 administrations (total 200 mg/kg)) is recorded as 50%. In addition, for the setting “40 mg/kg”, the “Number of Dead Animals ♂/♀” value is on record as 3/2. Moreover, the “Mortality Rate (%)” value (50 mg/kg, 5 administrations (total 250 mg/kg)) is 100%. The “Number of Dead Animals ♂/♀” value (50 mg/kg) is reported as 5/5. Besides, the “Mortality Rate (%)” value (60 mg/kg, 5 administrations (total 300 mg/kg)) stood at 100%. Moreover, the “Number of Dead Animals ♂/♀” value (60 mg/kg) is recorded as 5/5.
